Assay results: US9944607B2, “Thiohydantoin derivatives and uses thereof” (Whitehead Institute for Biomedical Research, priority 2012, dated 2018)
In brackets after ≈: the same amount, converted by molar mass. Where two headings read alike, the source gives them in different places. One block for each compound: values may come before it.

Key:
Candida albicans CaCi-17 = test: Primary assay: C. albicans CaCi-17 growth inhibition (Alamar Blue); type: cell-based; details: n = 3, 48 hours, tested up to 26 μM
Candida albicans CaCi-2 = test: Primary assay: C. albicans CaCi-2 growth inhibition (Alamar Blue); type: cell-based; details: n = 3, 48 hours, tested up to 26 μM; for IC50: read-out: Growth Inhibition Activity, IC50 (μM), C. albicans (n = 3) CaCi-2
[1] = tested on: NIH-3T3 mammalian fibroblasts; test: Counterscreen mammalian cell toxicity assay (Alamar Blue); type: cell-based, murine; details: n = 1, 48 hours, tested up to 26 μM
Procedure: Quiescent murine fibroblasts were subjected to incubation with compounds of interest for 48 hours. Subsequent cell viability was determined via measuring Alamar Blue fluorescence.
Procedures • After overnight culture, pin compounds into wells at 100 nL/well using the CyBio CyBi-Well pinning instrument. • Return the plates to the tissue culture incubator and incubate the culture for an additional 48 hours at 37° C. under 5% CO2. • At the completion of this incubation, add Alamar Blue solution diluted 1:40 in PBS to each well (10 μL/well) to achieve a final dilution of 1:200. • Incubate the plates for an additional 2-3 hours at 37° C. under 5% CO2. • Read the Relative Fluorescence Intensity (RFU) of wells on a standard plate reader as a measure of relative cell growth. […] 4.4.

[2] = Solubility in PBS pH 7.4 with 1% DMSO; details: for solubility at 24 h: phosphate buffered saline with 1% DMSO, pH 7.4, aqueous buffer, kinetic from dmso stock
Procedure: Solubility was determined in phosphate buffered saline (PBS) pH 7.4 with 1% DMSO. Each compound was prepared in duplicate at 100 μM in both 100% DMSO and PBS with 1% DMSO. Compounds were allowed to equilibrate at room temperature with a 250 rpm orbital shake for 24 hours. After equilibration, samples were analyzed by UPLC-MS (Waters, Milford, Mass.) with compounds detected by SIR detection on a single quadrupole mass spectrometer. The DMSO samples were used to create a two-point calibration curve to which the response in PBS was fit.

[3] = Table 4, PBS pH 7.4 with 1% DMSO, 24 hours, room temperature

- Growth Inhibition Activity, IC50 (μM), C. albicans (n = 3) CaCi-17 (Candida albicans CaCi-17; Table 7): inactive
- Growth Inhibition Activity, IC50 (μM), C. albicans (n = 3) CaCi-2 (Candida albicans CaCi-2; Table 7): inactive
- solubility at 24 h [2]: 5.9 µM (≈ 1.62 µg/mL)
SMILES: Cc1ccc(N2C(=O)C3(CCCCC3)NC2=S)cc1 [compound 56604856]
- Growth Inhibition Activity, IC50 (μM), 3T3 Fibroblasts (n = 1) ([1]; Table 7): Inactive

- Growth Inhibition Activity, IC50 (μM), C. albicans (n = 3) CaCi-17 (Candida albicans CaCi-17; Table 6): inactive
- Growth Inhibition Activity, IC50 (μM), C. albicans (n = 3) CaCi-2 (Candida albicans CaCi-2; Table 6): inactive
- solubility at 24 h [2]: < 1 µM
SMILES: CCCCN1C(=O)N(c2ccc(C)cc2)C2(CCCCC2)C1=S [compound 56604857]
- IC50 ([1]; Mus musculus, NIH3T3, read-out: Growth Inhibition Activity, IC50 (μM), 3T3 Fibroblasts (n = 1), Table 6): 20.9 µM

- Growth Inhibition Activity, IC50 (μM), C. albicans (n = 3) CaCi-17 (Candida albicans CaCi-17; Table 3): inactive
- IC50 (Candida albicans CaCi-2; Table 3): 5.9 µM
- PBS Solubility ([2]; pH 7.4): <1.0 µM
SMILES: Cc1ccc(N2C(=S)N(C(=O)OC(C)C)C(=O)C23CCCCC3)cc1 [compound 56604859]
- Growth Inhibition Activity, IC50 (μM), 3T3 Fibroblasts (n = 1) ([1]; Table 3): Inactive

- Growth Inhibition Activity, IC50 (μM), C. albicans (n = 3) CaCi-17 (Candida albicans CaCi-17; Table 6): inactive
- Growth Inhibition Activity, IC50 (μM), C. albicans (n = 3) CaCi-2 (Candida albicans CaCi-2; Table 6): inactive
- solubility at 24 h [2]: 26 µM (≈ 11.3 µg/mL)
SMILES: CCOC(=O)N1C(=S)N(c2ccc(C)cc2)C2(CCCCC2)/C1=N/Cc1ccccc1 [compound 56604867]
- Growth Inhibition Activity, IC50 (μM), 3T3 Fibroblasts (n = 1) ([1]; Table 6): Inactive

- Growth Inhibition Activity, IC50 (μM), C. albicans (n = 3) CaCi-17 (Candida albicans CaCi-17; Table 3): inactive
- Growth Inhibition Activity, IC50 (μM), C. albicans (n = 3) CaCi-2 (Candida albicans CaCi-2; Table 3): inactive
- PBS Solubility ([2]; pH 7.4): 2.2 µM
SMILES: CCCC(=O)N1C(=O)C2(CCCCC2)N(c2ccc(C)cc2)C1=S [compound 56604869]
- IC50 ([1]; read-out: Growth Inhibition Activity, IC50 (μM), 3T3 Fibroblasts (n = 1), Table 3): 18.8 µM

- Growth Inhibition Activity, IC50 (μM), C. albicans (n = 3) CaCi-17 (Candida albicans CaCi-17; Table 7): inactive
- Growth Inhibition Activity, IC50 (μM), C. albicans (n = 3) CaCi-2 (Candida albicans CaCi-2; Table 7): inactive
- solubility at 24 h [2]: 72 µM (≈ 18.7 µg/mL)
SMILES: Cc1ccc(N2C(=S)NC(=O)C23CCCC3)cc1 [compound 56604876]
- IC50 ([1]; Mus musculus, NIH3T3, read-out: Growth Inhibition Activity, IC50 (μM), 3T3 Fibroblasts (n = 1), Table 7): 32.6 µM

- Growth Inhibition Activity, IC50 (μM), C. albicans (n = 3) CaCi-17 (Candida albicans CaCi-17; Table 6): inactive
- Growth Inhibition Activity, IC50 (μM), C. albicans (n = 3) CaCi-2 (Candida albicans CaCi-2; Table 6): inactive
- solubility at 24 h [2]: 64 µM (≈ 20.1 µg/mL)
SMILES: CCCCN1C(=O)N(c2ccc(C)cc2)C2(CCCCC2)C1=O [compound 56604877]
- Growth Inhibition Activity, IC50 (μM), 3T3 Fibroblasts (n = 1) ([1]; Table 6): Inactive

- Growth Inhibition Activity, IC50 (μM), C. albicans (n = 3) CaCi-17 (Candida albicans CaCi-17; Table 7): inactive
- Growth Inhibition Activity, IC50 (μM), C. albicans (n = 3) CaCi-2 (Candida albicans CaCi-2; Table 7): inactive
- solubility at 24 h [2]: 14 µM (≈ 3.62 µg/mL)
SMILES: Cc1ccc(N2C(=O)NC(=O)C23CCCCC3)cc1 [compound 56604883]
- Growth Inhibition Activity, IC50 (μM), 3T3 Fibroblasts (n = 1) ([1]; Table 7): Inactive

- Growth Inhibition Activity, IC50 (μM), C. albicans (n = 3) CaCi-17 (Candida albicans CaCi-17; Table 3): inactive
- Growth Inhibition Activity, IC50 (μM), C. albicans (n = 3) CaCi-2 (Candida albicans CaCi-2; Table 3): inactive
- PBS Solubility ([2]; pH 7.4): 29 µM
SMILES: Cc1ccc(N2C(=S)N(S(C)(=O)=O)C(=O)C23CCCCC3)cc1 [compound 56604886]
- Growth Inhibition Activity, IC50 (μM), 3T3 Fibroblasts (n = 1) ([1]; Table 3): Inactive

- Growth Inhibition Activity, IC50 (μM), C. albicans (n = 3) CaCi-17 (Candida albicans CaCi-17; Table 3): inactive
- Growth Inhibition Activity, IC50 (μM), C. albicans (n = 3) CaCi-2 (Candida albicans CaCi-2; Table 3): inactive
- PBS Solubility ([2]; pH 7.4): 7.8 µM
SMILES: Cc1ccc(N2C(=S)NC(=O)C23CCCCC3)cc1 [compound 56604892]
- Growth Inhibition Activity, IC50 (μM), 3T3 Fibroblasts (n = 1) ([1]; Table 3): Inactive

- Growth Inhibition Activity, IC50 (μM), C. albicans (n = 3) CaCi-17 (Candida albicans CaCi-17; Table 5): inactive
- Growth Inhibition Activity, IC50 (μM), C. albicans (n = 3) CaCi-2 (Candida albicans CaCi-2; Table 5): Inactive
- PBS Solubility ([2]; pH 7.4): 9.9 µM
SMILES: CCOC(=O)N1C(=O)C2(CCC2)N(c2ccc(C)cc2)C1=S [compound 56604894]
- Growth Inhibition Activity, IC50 (μM), 3T3 Fibroblasts (n = 1) ([1]; Table 5): Inactive

Second part, the compound before the results:

SMILES: CCCc1ccc(N2C(=S)N(C(=O)OCC)C(=O)C23CCCCC3)cc1 [compound 56604858]
- Growth Inhibition Activity, IC50 (μM), C. albicans (n = 3) CaCi-17 (Candida albicans CaCi-17; Table 4): inactive
- IC50 (Candida albicans CaCi-2; Table 4): 6.9 µM
- Growth Inhibition Activity, IC50 (μM), 3T3 Fibroblasts (n = 1) ([1]; Table 4): Inactive
- PBS Solubility ([2]; pH 7.4): <1.0 µM

SMILES: O=C1NC(=S)N(c2ccc(F)cc2)C12CCCCC2 [compound 56604862]
- Growth Inhibition Activity, IC50 (μM), C. albicans (n = 3) CaCi-17 (Candida albicans CaCi-17; Table 7): inactive
- Growth Inhibition Activity, IC50 (μM), C. albicans (n = 3) CaCi-2 (Candida albicans CaCi-2; Table 7): inactive
- Growth Inhibition Activity, IC50 (μM), 3T3 Fibroblasts (n = 1) ([1]; Table 7): Inactive
- solubility at 24 h [2]: 43 µM (≈ 12 µg/mL)

SMILES: Cc1ccc(N2C(=S)N(C(=O)Oc3ccccc3)C(=O)C23CCCCC3)cc1 [compound 56604875]
- Growth Inhibition Activity, IC50 (μM), C. albicans (n = 3) CaCi-17 (Candida albicans CaCi-17; Table 3): inactive
- Growth Inhibition Activity, IC50 (μM), C. albicans (n = 3) CaCi-2 (Candida albicans CaCi-2; Table 3): inactive
- Growth Inhibition Activity, IC50 (μM), 3T3 Fibroblasts (n = 1) ([1]; Table 3): Inactive
- PBS Solubility ([2]; Table 3, PBS pH 7.4 with 1% DMSO, 24 hours, room temperature): <1.0 µM

SMILES: CCOC(=O)N1C(=O)C2(CCCCC2)N(Cc2ccccc2)C1=S [compound 56604878]
- IC50 (Candida albicans CaCi-17; Table 4, read-out: Growth Inhibition Activity, IC50 (μM), C. albicans (n = 3) CaCi-17): 22.8 µM
- IC50 (Candida albicans CaCi-2; Table 4): 3.8 µM
- Growth Inhibition Activity, IC50 (μM), 3T3 Fibroblasts (n = 1) ([1]; Table 4): Inactive
- PBS Solubility [2, 3]: 7.2 µM

SMILES: Cc1ccc(N2C(=S)NC(=O)C2(C)C)cc1 [compound 56604879]
- Growth Inhibition Activity, IC50 (μM), C. albicans (n = 3) CaCi-17 (Candida albicans CaCi-17; Table 7): inactive
- Growth Inhibition Activity, IC50 (μM), C. albicans (n = 3) CaCi-2 (Candida albicans CaCi-2; Table 7): inactive
- Growth Inhibition Activity, IC50 (μM), 3T3 Fibroblasts (n = 1) ([1]; Table 7): Inactive
- solubility at 24 h [2]: 55 µM (≈ 12.9 µg/mL)

SMILES: CCOC(=O)N1C(=O)C2(CCCCC2)N(c2ccc(-c3ccccc3)cc2)C1=S [compound 56604882]
- Growth Inhibition Activity, IC50 (μM), C. albicans (n = 3) CaCi-17 (Candida albicans CaCi-17; Table 4): inactive
- Growth Inhibition Activity, IC50 (μM), C. albicans (n = 3) CaCi-2 (Candida albicans CaCi-2; Table 4): inactive
- IC50 ([1]; read-out: Growth Inhibition Activity, IC50 (μM), 3T3 Fibroblasts (n = 1), Table 4): 9.8 µM
- PBS Solubility [2, 3]: <1.0 µM

SMILES: Cc1ccc(N2C(=O)C(=O)NC2=S)cc1 [compound 56604884]
- Growth Inhibition Activity, IC50 (μM), C. albicans (n = 3) CaCi-17 (Candida albicans CaCi-17; Table 7): inactive
- Growth Inhibition Activity, IC50 (μM), C. albicans (n = 3) CaCi-2 (Candida albicans CaCi-2; Table 7): inactive
- Growth Inhibition Activity, IC50 (μM), 3T3 Fibroblasts (n = 1) ([1]; Table 7): Inactive
- solubility at 24 h [2]: 21 µM (≈ 4.63 µg/mL)

SMILES: Cc1ccc(N2C(=S)NC(=O)C23CCOCC3)cc1 [compound 56604885]
- Growth Inhibition Activity, IC50 (μM), C. albicans (n = 3) CaCi-17 (Candida albicans CaCi-17; Table 7): inactive
- Growth Inhibition Activity, IC50 (μM), C. albicans (n = 3) CaCi-2 (Candida albicans CaCi-2; Table 7): inactive
- Growth Inhibition Activity, IC50 (μM), 3T3 Fibroblasts (n = 1) ([1]; Table 7): Inactive
- solubility at 24 h [2]: > 100 µM

SMILES: CCOC(=O)N1C(=O)C2(CCCCC2)N(C(C)C)C1=S [compound 56604896]
- Growth Inhibition Activity, IC50 (μM), C. albicans (n = 3) CaCi-17 (Candida albicans CaCi-17; Table 4): inactive
- Growth Inhibition Activity, IC50 (μM), C. albicans (n = 3) CaCi-2 (Candida albicans CaCi-2; Table 4): inactive
- Growth Inhibition Activity, IC50 (μM), 3T3 Fibroblasts (n = 1) ([1]; Table 4): Inactive
- PBS Solubility [2, 3]: 12 µM
